Results from PubChem BioAssay AID1963431 (Molecular Pharmacology Branch, DTP, NCI, 2024).
pIC50: −log10 of the molar value. Blank lines part the entries; values can stand above or below the molecule they belong to.

System: Rh18 complex spheroid viability, percent test/control
Assay: Anticancer human tumor Rh18 cell line growth inhibition [Asc];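 also: spheroids exposed to compound for 7 days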;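 as to viability, T/C: 100% = DMSO vehicle control wells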
Details: for pIC50: curve of first compound; for viability, T/C: stronger effect = lower value
In short: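 Complex solid-tumor spheroids incorporating human endothelial and mesenchymal stem cells received single agents or combinations over half-log dilution ranges anchored to clinical Cmax.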

[1] = second compound 0.1 µM, first compound 0.0316 µM
[2] = second compound 0.1 µM, first compound 0.1 µM
[3] = second compound 0.1 µM, first compound 0.316 µM
[4] = second compound 0.1 µM, first compound 1 µM
[5] = second compound 0.1 µM, first compound 3.16 µM
[6] = second compound 0.1 µM, first compound 10 µM
[7] = second compound 0.316 µM, first compound 0.0316 µM
[8] = second compound 0.316 µM, first compound 0.1 µM
[9] = second compound 0.316 µM, first compound 0.316 µM
[10] = second compound 0.316 µM, first compound 1 µM
[11] = second compound 0.316 µM, first compound 3.16 µM
[12] = second compound 0.316 µM, first compound 10 µM
[13] = second compound 1 µM, first compound 0.0316 µM
[14] = second compound 1 µM, first compound 0.1 µM
[15] = second compound 1 µM, first compound 0.316 µM
[16] = second compound 1 µM, first compound 1 µM
[17] = second compound 1 µM, first compound 3.16 µM
[18] = second compound 1 µM, first compound 10 µM
[19] = second compound 3.16 µM, first compound 0.0316 µM
[20] = second compound 3.16 µM, first compound 0.1 µM
[21] = second compound 3.16 µM, first compound 0.316 µM
[22] = second compound 3.16 µM, first compound 1 µM
[23] = second compound 3.16 µM, first compound 3.16 µM
[24] = second compound 3.16 µM, first compound 10 µM
[25] = second compound 10 µM, first compound 0.0316 µM
[26] = second compound 10 µM, first compound 0.1 µM
[27] = second compound 10 µM, first compound 0.316 µM
[28] = second compound 10 µM, first compound 1 µM
[29] = second compound 10 µM, first compound 3.16 µM
[30] = second compound 10 µM, first compound 10 µM

pIC50 (second compound 0.1 µM): > 7.50
pIC50 (second compound 0.316 µM): > 7.50
pIC50 (second compound 1 µM): > 7.50
pIC50 (second compound 3.16 µM): > 7.50
pIC50 (second compound 10 µM): > 7.50
Structure (SMILES): C=C(F)C(=O)N1CCN(c2nc(OCC3CCCN3C)nc3c2CCN(c2cccc4cccc(Cl)c24)C3)CC1CC#N (stereo not given) + Cc1c(S(C)(=O)=O)c(-c2cc(F)cc(N3CCN(c4ccc(NS(=O)(=O)c5ccc(NC(CCN6CCC(C(=O)OCCCP(=O)(O)O)CC6)CSc6ccccc6)c(S(=O)(=O)C(F)(F)F)c5)cc4)CC3)c2)c(-c2ccc(Cl)cc2)n1C(C)C
viability, T/C [1]: 13.9%
viability, T/C [2]: 14.1%
viability, T/C [3]: 16.8%
viability, T/C [4]: 18.4%
viability, T/C [5]: 4.57%
viability, T/C [6]: 0.19%
viability, T/C [7]: 6.98%
viability, T/C [8]: 8.95%
viability, T/C [9]: 10.2%
viability, T/C [10]: 10.4%
viability, T/C [11]: 1.87%
viability, T/C [12]: 0.13%
viability, T/C [13]: 7.24%
viability, T/C [14]: 8.76%
viability, T/C [15]: 10.9%
viability, T/C [16]: 8.02%
viability, T/C [17]: 0.6%
viability, T/C [18]: 0.14%
viability, T/C [19]: 7.34%
viability, T/C [20]: 7.03%
viability, T/C [21]: 8.15%
viability, T/C [22]: 4.6%
viability, T/C [23]: 0.19%
viability, T/C [24]: 0.18%
viability, T/C [25]: 4.96%
viability, T/C [26]: 5.5%
viability, T/C [27]: 5.96%
viability, T/C [28]: 4.82%
viability, T/C [29]: 0.38%
viability, T/C [30]: 0.23%

pIC50 (second compound 0.1 µM): > 7.50
pIC50 (second compound 0.316 µM): > 7.50
pIC50 (second compound 1 µM): > 7.50
pIC50 (second compound 3.16 µM): > 7.50
pIC50 (second compound 10 µM): > 7.50
Structure (SMILES): C=CC(=O)N1CCN(c2nc(=O)n(-c3c(C)ccnc3C(C)C)c3nc(-c4c(O)cccc4F)c(F)cc23)C(C)C1 (stereo not given) + Cc1c(S(C)(=O)=O)c(-c2cc(F)cc(N3CCN(c4ccc(NS(=O)(=O)c5ccc(NC(CCN6CCC(C(=O)OCCCP(=O)(O)O)CC6)CSc6ccccc6)c(S(=O)(=O)C(F)(F)F)c5)cc4)CC3)c2)c(-c2ccc(Cl)cc2)n1C(C)C
viability, T/C [1]: 15.2%
viability, T/C [2]: 17%
viability, T/C [3]: 15.5%
viability, T/C [4]: 19%
viability, T/C [5]: 20.8%
viability, T/C [6]: 29.2%
viability, T/C [7]: 11.4%
viability, T/C [8]: 11.5%
viability, T/C [9]: 11.4%
viability, T/C [10]: 12.6%
viability, T/C [11]: 15.1%
viability, T/C [12]: 17.5%
viability, T/C [13]: 8.27%
viability, T/C [14]: 8.47%
viability, T/C [15]: 8.62%
viability, T/C [16]: 7.63%
viability, T/C [17]: 11.4%
viability, T/C [18]: 15%
viability, T/C [19]: 6.03%
viability, T/C [20]: 8.21%
viability, T/C [21]: 7.26%
viability, T/C [22]: 8.5%
viability, T/C [23]: 7.74%
viability, T/C [24]: 13.2%
viability, T/C [25]: 3.36%
viability, T/C [26]: 5.72%
viability, T/C [27]: 4.34%
viability, T/C [28]: 7.21%
viability, T/C [29]: 5.57%
viability, T/C [30]: 13%

pIC50 (second compound 0.1 µM): > 8.02
pIC50 (second compound 0.316 µM): > 8.02
pIC50 (second compound 1 µM): > 8.02
pIC50 (second compound 3.16 µM): > 8.02
pIC50 (second compound 10 µM): > 8.02
Structure (SMILES): CCN1C(C(=O)NC23CCC(C(=O)O)(CC2)CC3)C(c2cccc(Cl)c2F)C2(C(=O)Nc3cc(Cl)ccc32)C12CCCCC2 (stereo not given) + Cc1c(S(C)(=O)=O)c(-c2cc(F)cc(N3CCN(c4ccc(NS(=O)(=O)c5ccc(NC(CCN6CCC(C(=O)OCCCP(=O)(O)O)CC6)CSc6ccccc6)c(S(=O)(=O)C(F)(F)F)c5)cc4)CC3)c2)c(-c2ccc(Cl)cc2)n1C(C)C
viability, T/C (second compound 0.1 µM, first compound 0.00949 µM): 19%
viability, T/C (second compound 0.1 µM, first compound 0.03 µM): 21%
viability, T/C (second compound 0.1 µM, first compound 0.0949 µM): 10.3%
viability, T/C (second compound 0.1 µM, first compound 0.3 µM): 6.82%
viability, T/C (second compound 0.1 µM, first compound 0.949 µM): 7.29%
viability, T/C (second compound 0.1 µM, first compound 3 µM): 3.96%
viability, T/C (second compound 0.316 µM, first compound 0.00949 µM): 12%
viability, T/C (second compound 0.316 µM, first compound 0.03 µM): 16.4%
viability, T/C (second compound 0.316 µM, first compound 0.0949 µM): 7.76%
viability, T/C (second compound 0.316 µM, first compound 0.3 µM): 5.97%
viability, T/C (second compound 0.316 µM, first compound 0.949 µM): 4.04%
viability, T/C (second compound 0.316 µM, first compound 3 µM): 0.91%
viability, T/C (second compound 1 µM, first compound 0.00949 µM): 8.76%
viability, T/C (second compound 1 µM, first compound 0.03 µM): 8.85%
viability, T/C (second compound 1 µM, first compound 0.0949 µM): 5.21%
viability, T/C (second compound 1 µM, first compound 0.3 µM): 4.08%
viability, T/C (second compound 1 µM, first compound 0.949 µM): 1.55%
viability, T/C (second compound 1 µM, first compound 3 µM): 0.87%
viability, T/C (second compound 3.16 µM, first compound 0.00949 µM): 6.63%
viability, T/C (second compound 3.16 µM, first compound 0.03 µM): 5.76%
viability, T/C (second compound 3.16 µM, first compound 0.0949 µM): 4.28%
viability, T/C (second compound 3.16 µM, first compound 0.3 µM): 3.45%
viability, T/C (second compound 3.16 µM, first compound 0.949 µM): 0.93%
viability, T/C (second compound 3.16 µM, first compound 3 µM): 0.73%
viability, T/C (second compound 10 µM, first compound 0.00949 µM): 5.47%
viability, T/C (second compound 10 µM, first compound 0.03 µM): 3.7%
viability, T/C (second compound 10 µM, first compound 0.0949 µM): 2.69%
viability, T/C (second compound 10 µM, first compound 0.3 µM): 1.52%
viability, T/C (second compound 10 µM, first compound 0.949 µM): 0.64%
viability, T/C (second compound 10 µM, first compound 3 µM): 0.73%

pIC50 (second compound 0.1 µM): > 8.50
pIC50 (second compound 0.316 µM): > 8.50
pIC50 (second compound 1 µM): > 8.50
pIC50 (second compound 3.16 µM): > 8.50
pIC50 (second compound 10 µM): > 8.50
Structure (SMILES): CNC(C)C(=O)NC1CN(S(=O)(=O)c2cccc(S(=O)(=O)N3CCC4CCC(C(=O)NC(c5ccccc5)c5ccccc5)N4C(=O)C(NC(=O)C(C)NC)C3)c2)CCC2CCC(C(=O)NC(c3ccccc3)c3ccccc3)N2C1=O (stereo not given) + Cc1c(S(C)(=O)=O)c(-c2cc(F)cc(N3CCN(c4ccc(NS(=O)(=O)c5ccc(NC(CCN6CCC(C(=O)OCCCP(=O)(O)O)CC6)CSc6ccccc6)c(S(=O)(=O)C(F)(F)F)c5)cc4)CC3)c2)c(-c2ccc(Cl)cc2)n1C(C)C
viability, T/C (second compound 0.1 µM, first compound 0.00316 µM): 11.9%
viability, T/C (second compound 0.1 µM, first compound 0.01 µM): 9.77%
viability, T/C [1]: 7.82%
viability, T/C [2]: 7.58%
viability, T/C [3]: 5.36%
viability, T/C [4]: 6.51%
viability, T/C (second compound 0.316 µM, first compound 0.00316 µM): 8.42%
viability, T/C (second compound 0.316 µM, first compound 0.01 µM): 7.07%
viability, T/C [7]: 8.09%
viability, T/C [8]: 5.52%
viability, T/C [9]: 3.69%
viability, T/C [10]: 5.21%
viability, T/C (second compound 1 µM, first compound 0.00316 µM): 7.09%
viability, T/C (second compound 1 µM, first compound 0.01 µM): 5.98%
viability, T/C [13]: 4.86%
viability, T/C [14]: 4.96%
viability, T/C [15]: 4.99%
viability, T/C [16]: 4.12%
viability, T/C (second compound 3.16 µM, first compound 0.00316 µM): 4.15%
viability, T/C (second compound 3.16 µM, first compound 0.01 µM): 4.41%
viability, T/C [19]: 3.7%
viability, T/C [20]: 4.89%
viability, T/C [21]: 2.21%
viability, T/C [22]: 3.61%
viability, T/C (second compound 10 µM, first compound 0.00316 µM): 5.31%
viability, T/C (second compound 10 µM, first compound 0.01 µM): 4.19%
viability, T/C [25]: 2.98%
viability, T/C [26]: 3.4%
viability, T/C [27]: 2.94%
viability, T/C [28]: 2.34%
